The source of these data is patent publication US20100168176A1, “NOVEL COMPOUNDS, PHARMACEUTICAL COMPOSITIONS CONTAINING SAME, AND METHODS OF USE FOR SAME” (FASGEN LLC, priority 2006, published 2010).

≈ marks a conversion by molar mass, not a printed value.

Experiment [1] concerns MCF-7 human breast cancer cells. The experiment can be described thus: [14C]acetate incorporation into total lipids. In kind it is cell-based. As to conditions: MCF7. As for the experimental part: Measurement of [^14 C]acetate Incorporation into Total Lipids and Determination of IC50 of Compounds
This assay measures the incorporation of [^14C]acetate into total lipids and is a measure of fatty acid synthesis pathway activity in vitro. It is utilized to measure inhibition of fatty acid synthesis in vitro.
MCF-7 human breast cancer cells cultured as above, are plated at 5×10^4 cells per well in 24-well plates. Following overnight incubation, the compounds to be tested, solubilized in DMSO, are added at 5, 10, and 20 μg/ml in triplicate, with lower concentrations tested if necessary. DMSO is added to triplicate wells for a vehicle control. C75 is run at 5 and 10 μg/ml in triplicate as positive controls. After 4 hours of incubation, 0.25 μCi of [^14C]acetate (10 μl volume) is added to each well.
After 2 hours of additional incubation, medium is aspirated from the wells and 800 μl of chloroform:methanol (2:1) and 700 μl of 4 mM MgCl2 is added to each well. Contents of each well are transferred to 1.5 Eppendorf tubes, and spun at full-speed for 2 minutes in a high-speed Eppendorf Microcentrifuge 5415D. After removal of the aqueous (upper) layer, an additional 700 μl of chloroform:methanol (2:1) and 500 μl of 4 mM MgCl2 are added to each tube and then centrifuged for 1 minutes as above. The aqueous layer is removed with a Pasteur pipette and discarded. An additional 400 μl of chloroform:methanol (2:1) and 200 μl of 4 mM MgCl2 are added to each tube, then centrifuged and aqueous layer is discarded. The lower (organic) phase is transferred into a scintillation vial and dried at 40° C. under N2 gas. Once dried, 3 ml of scintillant (APB #NBC5104) is added and vials are counted for ^14C. The Beckman Scintillation counter calculates the average cpm values for triplicates.
The IC50 for the compounds is defined as the concentration of drug leading to a 50% reduction in [^14C]acetate incorporation into lipids compared to controls. This is determined by plotting the average cpm for each inhibitor concentration tested, performing linear regression and computing the best-fit line, r^2 values, and 95% confidence intervals. The average cpm values are computed by the Beckman scintillation counter (Model LS6500) for each compound concentration. Computation of linear regression, best-fit line, r^2, and 95% confidence intervals are calculated using Prism Version 3.0 (Graph Pad Software).

Experiment [2] has as its target T1, purified human FAS (Homo sapiens, UniProt P49327).
T1 construct: Human FAS was purified from cultured ZR-75-1 human breast cancer cells; endogenous in cells; host or cells: ZR-75-1 human breast cancer cells (ATCC); Purified by hypotonic lysis, PEG precipitations and Mono Q anion exchange
The experiment is described as follows: FAS enzymatic activity (malonyl-CoA dependent NADPH oxidation, OD340). In kind it is biochemical. The settings on record: purified human FAS from ZR-75-1 cells. As for the experimental part: Purification of FAS from ZR-75-1 Human Breast Cancer Cells.
Human FAS was purified from cultured ZR-75-1 human breast cancer cells obtained from the American Type Culture Collection. The procedure, adapted from Linn et al., 1981, and Kuhajda et al., 1994, utilizes hypotonic lysis, successive polyethyleneglycol (PEG) precipitations, and anion exchange chromatography. ZR-75-1 cells are cultured at 37° C. with 5% CO2 in RPMI culture medium with 10% fetal bovine serum, penicillin and streptomycin.
Ten T150 flasks of confluent cells are lysed with 1.5 ml lysis buffer (20 mM Tris-HCl, pH 7.5, 1 mM EDTA, 0.1 mM phenylmethanesulfonyl fluoride (PMSF), 0.1% Igepal CA-630) and dounce homogenized on ice for 20 strokes. The lysate is centrifuged in JA-20 rotor (Beckman) at 20,000 rpm for 30 minutes at 4° C. and the supernatant is brought to 42 ml with lysis buffer. A solution of 50% PEG 8000 in lysis buffer is added slowly to the supernatant to a final concentration of 7.5%. After rocking for 60 minutes at 4° C., the solution is centrifuged in JA-20 rotor (Beckman) at 15,000 rpm for 30 minutes at 4° C. Solid PEG 8000 is then added to the supernatant to a final concentration of 15%. After the rocking and centrifugation is repeated as above, the pellet is resuspended overnight at 4° C. in 10 ml of Buffer A (20 mM K2HPO4, pH 7.4). […] FAS protein concentration is determined using the Coomassie Plus Protein Assay Reagent (Pierce) according to manufacturer's specifications using BSA as a standard. […]
FAS activity is measured by monitoring the malonyl-CoA dependent oxidation of NADPH spectrophotometrically at OD340 in 96-well plates (Dils et al and Arslanian et al, 1975). […]
The assay is performed on a Molecular Devices SpectraMax Plus Spectrophotometer. […] Using the kinetic protocol, the wells are blanked on duplicate wells containing 100 μl of 100 mM K2HPO4, pH 6.5 and the plate is read at OD340 at 10 sec intervals for 5 minutes to measure any malonyl-CoA independent oxidation of NADPH. […] The plate is read again as above with the kinetic protocol to measure the malonyl-CoA dependent NADPH oxidation. […]

T1 sequence (P49327 whole entry): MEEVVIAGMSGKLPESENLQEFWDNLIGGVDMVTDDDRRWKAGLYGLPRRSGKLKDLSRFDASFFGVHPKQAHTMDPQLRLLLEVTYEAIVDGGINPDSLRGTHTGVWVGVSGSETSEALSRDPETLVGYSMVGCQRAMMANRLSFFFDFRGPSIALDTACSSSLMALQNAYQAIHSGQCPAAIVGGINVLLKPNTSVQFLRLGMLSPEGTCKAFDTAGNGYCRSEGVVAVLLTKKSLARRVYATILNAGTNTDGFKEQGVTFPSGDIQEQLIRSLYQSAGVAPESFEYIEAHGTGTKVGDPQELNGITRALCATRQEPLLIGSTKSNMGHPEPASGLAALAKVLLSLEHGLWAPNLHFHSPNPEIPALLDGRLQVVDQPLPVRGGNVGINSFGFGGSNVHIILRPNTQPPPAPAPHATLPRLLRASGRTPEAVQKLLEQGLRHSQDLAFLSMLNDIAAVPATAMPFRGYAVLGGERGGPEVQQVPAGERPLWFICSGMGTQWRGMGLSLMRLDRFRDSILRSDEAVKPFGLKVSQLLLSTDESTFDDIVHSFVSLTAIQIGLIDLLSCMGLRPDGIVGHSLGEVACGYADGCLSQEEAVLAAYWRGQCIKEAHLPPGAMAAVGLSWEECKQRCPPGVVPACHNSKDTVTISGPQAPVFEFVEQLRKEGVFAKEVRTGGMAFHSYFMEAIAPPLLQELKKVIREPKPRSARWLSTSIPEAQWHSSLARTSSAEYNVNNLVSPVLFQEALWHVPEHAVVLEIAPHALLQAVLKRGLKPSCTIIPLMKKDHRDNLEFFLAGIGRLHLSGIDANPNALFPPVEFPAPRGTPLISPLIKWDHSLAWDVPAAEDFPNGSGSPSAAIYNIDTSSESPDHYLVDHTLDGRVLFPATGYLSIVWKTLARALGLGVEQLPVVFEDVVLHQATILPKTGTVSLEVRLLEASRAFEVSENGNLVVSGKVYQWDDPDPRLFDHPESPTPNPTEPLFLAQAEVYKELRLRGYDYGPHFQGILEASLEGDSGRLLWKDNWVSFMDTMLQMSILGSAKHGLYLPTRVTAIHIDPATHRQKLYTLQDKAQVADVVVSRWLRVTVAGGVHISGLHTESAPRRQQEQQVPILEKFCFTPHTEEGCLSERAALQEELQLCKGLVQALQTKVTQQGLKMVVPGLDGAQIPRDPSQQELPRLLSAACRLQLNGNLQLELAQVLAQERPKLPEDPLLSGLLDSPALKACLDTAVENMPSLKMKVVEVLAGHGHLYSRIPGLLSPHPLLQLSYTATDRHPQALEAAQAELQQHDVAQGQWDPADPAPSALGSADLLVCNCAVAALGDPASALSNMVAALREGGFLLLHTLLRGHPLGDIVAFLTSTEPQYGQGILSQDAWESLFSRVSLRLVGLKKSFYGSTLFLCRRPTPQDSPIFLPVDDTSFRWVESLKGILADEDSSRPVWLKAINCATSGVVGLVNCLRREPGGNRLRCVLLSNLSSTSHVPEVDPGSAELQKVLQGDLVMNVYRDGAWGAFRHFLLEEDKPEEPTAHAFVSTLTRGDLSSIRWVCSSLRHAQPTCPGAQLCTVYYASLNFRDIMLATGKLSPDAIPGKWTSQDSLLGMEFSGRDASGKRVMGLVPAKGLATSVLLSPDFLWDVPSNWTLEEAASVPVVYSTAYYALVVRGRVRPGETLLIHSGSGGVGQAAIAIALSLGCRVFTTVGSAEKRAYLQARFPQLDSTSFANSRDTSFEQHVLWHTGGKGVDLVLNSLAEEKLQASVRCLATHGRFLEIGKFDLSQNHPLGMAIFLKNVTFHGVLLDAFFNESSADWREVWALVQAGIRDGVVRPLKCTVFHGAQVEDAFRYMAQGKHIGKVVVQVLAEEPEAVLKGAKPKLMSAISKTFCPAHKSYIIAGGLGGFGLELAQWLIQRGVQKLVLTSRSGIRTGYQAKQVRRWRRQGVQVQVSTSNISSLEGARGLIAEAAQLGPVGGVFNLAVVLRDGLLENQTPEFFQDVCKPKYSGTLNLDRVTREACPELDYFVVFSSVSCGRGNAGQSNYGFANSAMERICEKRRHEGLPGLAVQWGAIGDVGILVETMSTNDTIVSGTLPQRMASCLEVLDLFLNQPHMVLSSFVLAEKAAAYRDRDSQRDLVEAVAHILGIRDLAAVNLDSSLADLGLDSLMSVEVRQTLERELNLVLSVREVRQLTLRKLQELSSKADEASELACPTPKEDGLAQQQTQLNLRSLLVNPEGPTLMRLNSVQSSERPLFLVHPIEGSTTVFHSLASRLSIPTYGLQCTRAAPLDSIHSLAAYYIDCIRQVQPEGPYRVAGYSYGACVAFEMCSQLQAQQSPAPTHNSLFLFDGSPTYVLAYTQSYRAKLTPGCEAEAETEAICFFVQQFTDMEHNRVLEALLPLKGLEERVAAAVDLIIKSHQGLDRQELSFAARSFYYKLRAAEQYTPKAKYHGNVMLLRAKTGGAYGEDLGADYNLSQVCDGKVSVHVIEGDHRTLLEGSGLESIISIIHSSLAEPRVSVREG

In experiment [1], `CCCCCCCCC1(C)SC(=O)C=C1OCC(=O)NNc1ccccc1Cl` (stereo not shown) [Compound 19, (5-Methyl-5-octyl-2-oxo-thiophen-4-yloxy)-acetic-acid-N′-(2-chlorophenyl)-hydrazide] registered an IC50 of 39.8 ± 12.7 µg/mL (≈ 93.6 µM). Further, the “FAS (IC50)” value in experiment [2] is listed as “Neg”.

With `CCCCCCCCC1(C)SC(=O)C=C1OCC(=O)NNC(=O)c1ccncc1` (stereo not shown) [Compound 20], in experiment [1], the half-inhibitory concentration (IC50) was found to be 17.4 µg/mL (≈ 41.5 µM). Moreover, the “FAS (IC50)” value in experiment [2] is on record as “Neg”.

Usually IC50 stands for the concentration that gives 50% inhibition. Lower therefore signals greater potency in that assay.
